pIC50: −log10 of the molar value.
Tests used:
[1] = test system: HHV-6 variant B; details: "is considered to be", read-out: effective concentration against HHV-6 variant B in terms of IC50; cited from earlier work
[2] = test system: HHV-6 variant B HST strain; assay: Expression of SITH-1 in HHV-6-infected U373 cells in the presence of ganciclovir (real-time PCR); assay type: cell-based, human herpesvirus 6; details: U373 glial cell line infected with HHV-6, one day after infection, relative to ganciclovir (-)
Description: The human glial cell line (U373) was infected with HHV-6 in the presence of ganciclovir, and the amount of SITH-1 expressed in the infected cell line was measured by the real-time PCR technique.
The U373 cells were cultured overnight in the presence of ganciclovir at various concentrations (FIG. 14) and infected with an HHV-6 variant B HST strain, and the amount of SITH-1 that was expressed in cells one day after the infection was measured by the real-time PCR technique.
Since the effective concentration of ganciclovir against HHV-6 variant B is considered to be about 10 μM in terms of IC50, three concentrations were obtained by 3-fold dilutions, with 10 μM in the middle.
The vertical axis of the graph in FIG. 14 plots the relative amount of expression of SITH-1 mRNA, with the value for ganciclovir (-) being taken as unity. […] When ganciclovir was used in the amounts of […], 10 μM and 30 μM, the amount of expression of SITH-1 mRNA was suppressed by about 20%, 40% and more than 80%, respectively.

[3] = test system: CAML; assay: Expression of CAML in HHV-6-infected U373 cells in the presence of ganciclovir (indirect fluorescent antibody technique); assay type: cell-based, human; details: U373 cell line infected with HHV-6, ganciclovir added after infection
Description: The human glial cell line (U373) is infected with HHV-6, and then ganciclovir is added. The amount of CAML expressed in the infected cell line in the presence of ganciclovir is measure by the indirect fluorescent antibody technique.

[4] = test system: HHV-6 or Epstein-Barr virus (EBV); details: patients with encephalitis/encephalopathy-like and long-standing fatigue symptoms, presumably due to HHV-6 or EBV infection; cited from earlier work

Compound	pIC50 [1]	amount of expression of SITH-1 mRNA suppressed ([2]; ganciclovir 3 μM)	amount of expression of SITH-1 mRNA suppressed ([2]; ganciclovir 10 μM) [%]	amount of expression of SITH-1 mRNA suppressed ([2]; ganciclovir 30 μM)	amount of CAML expression [3]	patients who had their symptoms improved [4] [%]
Nc1nc(O)c2ncn(COC(CO)CO)c2n1 [ganciclovir]	~5.00	about 20%	~40	more than 80%	suppressed by ganciclovir in a dose-dependent manner	–
CC(C)[C@H](N)C(=O)OCC(CO)OCn1cnc2c(=O)nc(N)[nH]c21 (stereo partly drawn) [valganciclovir]	–	–	–	–	–	75
